Assay results reported in patent US20110262508A1, “ANTIMICROBIAL COMPOSITIONS, FORMULATIONS AND USES THEREOF” (priority 2007, published 2011).
In brackets after ≈: the same amount, converted by molar mass. Like-named read-outs stand apart in the source and are kept apart here. Peptide text beside a SMILES is read from it.

Test system: A. baumannii
Assay type: cell-based
Text: Broth dilution methods are e.g., described by Lorian (2007) In: Antibiotics in Laboratory Medicine, Fifth Edition; and In: Clinical and Laboratory Standards Institute, CLSI (formerly NCCLS), In: Methods for Dilution Antimicrobial Susceptibility Tests for Bacteria that Grow Aerobically—Approved Standard—Seventh Edition, CLSI document M7-A7, Villanova, Pa. (NCCLS; January 2006; Vol. 26 No. 2); and In: Clinical and Laboratory Standards Institute, CLSI (formerly NCCLS), Performance Standards for Antimicrobial Susceptibility Testing, Seventeenth Informational Supplement, M100-S17, Vol 27 No. 1 January 2007, all of which are incorporated herein by reference.
The present inventors used such methods to quantitate activity in vitro of antimicrobial peptides of the invention against bacterial isolates, including laboratory strains and 50 clinical isolates of A. baumannii, and S. aureus ATCC Accession No. 2992. Briefly, small volumes of broth are dispensed in sterile, plastic microtiter trays, and 100 μl of serially-diluted antimicrobial peptide (0.1-64 μg) and 100 μl test organism (approximately 1×10^5 C.F.U.), are added. Following aerobic incubation overnight at 35±2° C. Control samples lacked peptide (Growth control), or lacked peptide and bacteria (Sterility control). The trays were examined visually and the minimal inhibitory concentration (MIC) of peptide required to inhibit bacterial growth were determined. The minimum bactericidal concentration (MBC) was estimated by sub-culturing the wells for which no bacterial growth was visible to the naked eye, to thereby determine a concentration of antimicrobial that reduces the original inoculum by at least about 99.9%.

[1] = A. baumannii (Table 8), reduces original inoculum by at least about 99.9%

MIC	SMILES	MBC	other results
40 µM (≈ 107 µg/mL)	CC[C@H](C)[C@H](NC(=O)[C@H](CO)NC(=O)[C@H](Cc1c[nH]c2ccccc12)NC(=O)[C@H](CS)NC(=O)[C@H](CCCNC(=N)N)NC(=O)[C@H](CS)NC(=O)[C@@H](NC(=O)[C@@H](NC(=O)[C@@H]1CCCN1C(=O)[C@H](CCCNC(=N)N)NC(=O)[C@H](C)NC(=O)[C@H](C)NC(=O)[C@H](CS)NC(=O)[C@H](CCCNC(=N)N)NC(=O)[C@H](CCCCN)NC(=O)[C@H](CCCNC(=N)N)NC(=O)[C@@H](N)[C@@H](C)O)[C@@H](C)O)[C@@H](C)O)C(=O)NCC(=O)N[C@@H](CCCNC(=N)N)C(=O)N[C@@H](C)C(=O)N[C@@H](Cc1c[nH]c2ccccc12)C(=O)N[C@@H](CCCCN)C(=O)N[C@@H](C)C(=O)O [Ac364] (H-TRKRCAARPTTCRCWSIGRAWKA-OH; N-terminus and C-terminus assumed)	40 µM (≈ 107 µg/mL)	
40 µM (≈ 116 µg/mL)	CC[C@H](C)[C@H](NC(=O)[C@H](Cc1c[nH]c2ccccc12)NC(=O)[C@H](CCCNC(=N)N)NC(=O)[C@@H](N)CO)C(=O)N[C@@H](CS)C(=O)N[C@@H](CO)C(=O)N[C@@H](CCSC)C(=O)N[C@@H](C)C(=O)N[C@@H](CCCNC(=N)N)C(=O)N[C@@H](CCCNC(=N)N)C(=O)N[C@@H](CO)C(=O)N[C@@H](CCCNC(=N)N)C(=O)N[C@@H](CCCNC(=N)N)C(=O)N[C@@H](CCCNC(=N)N)C(=O)N[C@@H](CCCNC(=N)N)C(=O)N1CCC[C@H]1C(=O)NCC(=O)N[C@@H](CCCNC(=N)N)C(=O)N[C@@H](CO)C(=O)N[C@H](C(=O)N[C@@H](CCCNC(=N)N)C(=O)N[C@@H](CO)C(=O)N[C@@H](Cc1c[nH]c2ccccc12)C(=O)O)[C@@H](C)O [Ac390] (H-SRWICSMARRSRRRRPGRSTRSW-OH; N-terminus and C-terminus assumed)	40 µM (≈ 116 µg/mL)	
40 µM (≈ 108 µg/mL)	CC[C@H](C)[C@H](NC(=O)[C@H](CCC(N)=O)NC(=O)[C@H](CCCNC(=N)N)NC(=O)[C@H](CS)NC(=O)[C@@H](NC(=O)[C@H](CCCNC(=N)N)NC(=O)[C@H](CCCNC(=N)N)NC(=O)[C@H](CC(C)C)NC(=O)[C@H](CC(=O)O)NC(=O)[C@H](CCC(=O)O)NC(=O)[C@H](CCCNC(=N)N)NC(=O)[C@H](CC(C)C)NC(=O)[C@H](CCCNC(=N)N)NC(=O)CNC(=O)[C@@H](N)CO)[C@@H](C)CC)C(=O)N[C@@H](CO)C(=O)N[C@@H](C)C(=O)N[C@@H](Cc1ccc(O)cc1)C(=O)N[C@@H](CCCCN)C(=O)N[C@@H](CO)C(=O)N[C@@H](CC(=O)O)C(=O)N[C@@H](CO)C(=O)N[C@@H](CO)C(=O)O [Ac340] (H-SGRLREDLRRICRQISAYKSDSS-OH; N-terminus and C-terminus assumed)	40 µM (≈ 108 µg/mL)	
40 µM (≈ 102 µg/mL)	CC(C)C[C@H](NC(=O)CNC(=O)[C@H](CS)NC(=O)[C@H](CO)NC(=O)CNC(=O)[C@H](CCCNC(=N)N)NC(=O)[C@H](CS)NC(=O)[C@H](CCCCN)NC(=O)[C@H](CO)NC(=O)[C@H](CC(C)C)NC(=O)[C@@H](NC(=O)[C@H](CC(N)=O)NC(=O)[C@H](CS)NC(=O)[C@H](C)NC(=O)[C@H](CCCNC(=N)N)NC(=O)[C@@H](N)Cc1c[nH]c2ccccc12)[C@@H](C)O)C(=O)N[C@@H](CCCNC(=N)N)C(=O)N[C@H](C(=O)N[C@@H](Cc1c[nH]c2ccccc12)C(=O)N[C@@H](C)C(=O)NCC(=O)N[C@@H](CCCNC(=N)N)C(=O)NCC(=O)O)C(C)C [Ac380] (H-WRACNTLSKCRGSCGLRVWAGRG-OH; N-terminus and C-terminus assumed)		
15 µM (≈ 23.8 µg/mL)	CC(C)C[C@H](NC(=O)[C@H](CS)NC(=O)[C@@H](NC(=O)[C@@H](NC(=O)[C@H](Cc1ccccc1)NC(=O)[C@H](Cc1c[nH]c2ccccc12)NC(=O)[C@@H](NC(=O)[C@H](CC(C)C)NC(=O)[C@H](Cc1ccccc1)NC(=O)[C@H](CS)NC(=O)[C@@H](NC(=O)[C@H](CC(N)=O)NC(=O)[C@@H](N)Cc1c[nH]cn1)[C@@H](C)O)[C@@H](C)O)[C@@H](C)O)[C@@H](C)O)C(=O)O [Ac472] (H-HNTCFLTWFTTCL-OH; N-terminus and C-terminus assumed)		MIC (μM) for non-amidated Peptide: 15 µM; bactericidal or bacteriostatic against A. baumannii: bacteriostatic; MBC (μM) [1]: bacteriostat
40 µM (≈ 97.5 µg/mL)	CC[C@H](C)[C@H](NC(=O)[C@H](CCCNC(=N)N)NC(=O)[C@@H]1CCCN1C(=O)CNC(=O)[C@H](C)NC(=O)[C@H](CCSC)NC(=O)[C@H](CCCNC(=N)N)NC(=O)[C@H](CC(C)C)NC(=O)[C@H](CCCNC(=N)N)NC(=O)[C@H](CS)NC(=O)[C@H](CS)NC(=O)[C@H](C)NC(=O)[C@H](Cc1c[nH]c2ccccc12)NC(=O)CNC(=O)[C@H](CS)NC(=O)CNC(=O)[C@H](C)NC(=O)[C@H](C)NC(=O)[C@@H]1CCCN1C(=O)[C@H](Cc1ccccc1)NC(=O)[C@H](Cc1c[nH]c2ccccc12)NC(=O)CN)C(=O)NCC(=O)O [Ac451] (H-GWFPAAGCGWACCRLRMAGPRIG-OH; N-terminus and C-terminus assumed)		
	CSCC[C@H](NC(=O)[C@H](CC(C)C)NC(=O)[C@H](CCCCN)NC(=O)[C@H](CCCCN)NC(=O)[C@@H](NC(=O)[C@@H](NC(=O)[C@H](C)NC(=O)[C@H](Cc1ccccc1)NC(=O)[C@H](Cc1ccc(O)cc1)NC(=O)CNC(=O)[C@H](CS)NC(=O)[C@H](Cc1c[nH]cn1)NC(=O)[C@@H]1CCCN1C(=O)CNC(=O)CN)[C@@H](C)O)[C@@H](C)O)C(=O)N[C@@H](CCCNC(=N)N)C(=O)N[C@@H](CCCCN)C(=O)N[C@H](C(=O)N1CCC[C@H]1C(=O)NCC(=O)N[C@@H](CCCNC(=N)N)C(=O)N[C@@H](CC(C)C)C(=O)N[C@H](C(=O)O)C(C)C)C(C)C [Ac330] (H-GGPHCGYFATTKKLMRKVPGRLV-OH; N-terminus and C-terminus assumed)		MIC (A. baumannii (Table 8)): 20 µM (≈ 50.3 µg/mL); MBC [1]: 40 µM (≈ 101 µg/mL); MIC (μM) for non-amidated Peptide (non-amidated peptide, strongly inhibitory against A. baumannii (Table 7)): 20 µM
40 µM (≈ 71.8 µg/mL)	CC(C)C[C@H](NC(=O)[C@H](Cc1ccccc1)NC(=O)[C@H](CCCNC(=N)N)NC(=O)[C@H](CCCNC(=N)N)NC(=O)[C@H](CCCNC(=N)N)NC(=O)[C@H](CO)NC(=O)[C@H](CS)NC(=O)[C@@H](N)Cc1c[nH]c2ccccc12)C(=O)N[C@@H](C)C(=O)N[C@@H](CCCNC(=N)N)C(=O)N[C@@H](CS)C(=O)N[C@@H](Cc1c[nH]c2ccccc12)C(=O)N[C@@H](CCCNC(=N)N)C(=O)O [Ac496] (H-WCSRRRFLARCWR-OH; N-terminus and C-terminus assumed)	40 µM (≈ 71.8 µg/mL)	
20 µM (≈ 53.9 µg/mL)	CSCC[C@H](N)C(=O)NCC(=O)N[C@@H](CCCNC(=N)N)C(=O)N[C@@H](CC(C)C)C(=O)N[C@@H](CO)C(=O)NCC(=O)N[C@H](C(=O)N[C@@H](C)C(=O)N[C@@H](Cc1c[nH]c2ccccc12)C(=O)N[C@@H](CCCNC(=N)N)C(=O)N[C@@H](CCCNC(=N)N)C(=O)N[C@@H](CC(C)C)C(=O)N[C@@H](CO)C(=O)N[C@@H](CC(C)C)C(=O)N[C@@H](CCCNC(=N)N)C(=O)N[C@@H](Cc1c[nH]cn1)C(=O)N[C@@H](CS)C(=O)N[C@@H](CCC(=O)O)C(=O)N[C@@H](CS)C(=O)NCC(=O)N[C@@H](CCCNC(=N)N)C(=O)N[C@@H](CCCNC(=N)N)C(=O)N1CCC[C@H]1C(=O)O)C(C)C [Ac370] (H-MGRLSGVAWRRLSLRHCECGRRP-OH; N-terminus and C-terminus assumed)	20 µM (≈ 53.9 µg/mL)	MIC (μM) for non-amidated Peptide: 20 µM
30 µM (≈ 78.2 µg/mL)	CC[C@H](C)[C@H](NC(=O)[C@H](CCCNC(=N)N)NC(=O)[C@H](CCCNC(=N)N)NC(=O)[C@H](CC(C)C)NC(=O)[C@H](CC(=O)O)NC(=O)[C@H](CCC(=O)O)NC(=O)[C@H](CCCNC(=N)N)NC(=O)[C@H](CC(C)C)NC(=O)[C@H](CCCNC(=N)N)NC(=O)CNC(=O)[C@H](CO)NC(=O)[C@H](Cc1ccccc1)NC(=O)[C@@H](NC(=O)[C@H](CC(C)C)NC(=O)[C@@H](NC(=O)CNC(=O)[C@H](Cc1ccccc1)NC(=O)[C@@H](NC(=O)[C@@H](NC(=O)CNC(=O)CN)C(C)C)C(C)C)C(C)C)[C@@H](C)O)C(=O)N[C@@H](CS)C(=O)N[C@@H](CCCNC(=N)N)C(=O)O [Ac338] (H-GGVVFGVLTFSGRLREDLRRICR-OH; N-terminus and C-terminus assumed)	30 µM (≈ 78.2 µg/mL)	
30 µM (≈ 76.1 µg/mL)	CC(C)C[C@H](NC(=O)CNC(=O)[C@H](CS)NC(=O)[C@H](CO)NC(=O)CNC(=O)[C@H](CCCNC(=N)N)NC(=O)[C@H](CS)NC(=O)[C@H](CCCCN)NC(=O)[C@H](CO)NC(=O)[C@H](CC(C)C)NC(=O)[C@@H](NC(=O)[C@H](CC(N)=O)NC(=O)[C@H](CS)NC(=O)[C@H](C)NC(=O)[C@H](CCCNC(=N)N)NC(=O)[C@H](Cc1c[nH]c2ccccc12)NC(=O)[C@H](CCCNC(=N)N)NC(=O)[C@H](Cc1c[nH]c2ccccc12)NC(=O)CNC(=O)[C@H](C)NC(=O)CN)[C@@H](C)O)C(=O)N[C@@H](CCCNC(=N)N)C(=O)N[C@H](C(=O)O)C(C)C [Ac379] (H-GAGWRWRACNTLSKCRGSCGLRV-OH; N-terminus and C-terminus assumed)	39 µM (≈ 99 µg/mL)	
